The source of these data is ChEMBL document CHEMBL1240342, “Molecular modeling studies of vascular endothelial growth factor receptor tyrosine kinase inhibitors using QSAR and docking” (J Mol Graph Model, 2009).

For the experiment, the target named is Vascular endothelial growth factor receptor 2 (Homo sapiens, UniProt P35968). Nature of the experiment: Inhibition of human VEGFR2 after 60 mins.

What is called IC50 is the concentration needed to halve the response being measured. The low end stands for inhibition by little substance, the high end for a need for much substance.

Vascular endothelial growth factor receptor 2, sequence (P35968 whole entry): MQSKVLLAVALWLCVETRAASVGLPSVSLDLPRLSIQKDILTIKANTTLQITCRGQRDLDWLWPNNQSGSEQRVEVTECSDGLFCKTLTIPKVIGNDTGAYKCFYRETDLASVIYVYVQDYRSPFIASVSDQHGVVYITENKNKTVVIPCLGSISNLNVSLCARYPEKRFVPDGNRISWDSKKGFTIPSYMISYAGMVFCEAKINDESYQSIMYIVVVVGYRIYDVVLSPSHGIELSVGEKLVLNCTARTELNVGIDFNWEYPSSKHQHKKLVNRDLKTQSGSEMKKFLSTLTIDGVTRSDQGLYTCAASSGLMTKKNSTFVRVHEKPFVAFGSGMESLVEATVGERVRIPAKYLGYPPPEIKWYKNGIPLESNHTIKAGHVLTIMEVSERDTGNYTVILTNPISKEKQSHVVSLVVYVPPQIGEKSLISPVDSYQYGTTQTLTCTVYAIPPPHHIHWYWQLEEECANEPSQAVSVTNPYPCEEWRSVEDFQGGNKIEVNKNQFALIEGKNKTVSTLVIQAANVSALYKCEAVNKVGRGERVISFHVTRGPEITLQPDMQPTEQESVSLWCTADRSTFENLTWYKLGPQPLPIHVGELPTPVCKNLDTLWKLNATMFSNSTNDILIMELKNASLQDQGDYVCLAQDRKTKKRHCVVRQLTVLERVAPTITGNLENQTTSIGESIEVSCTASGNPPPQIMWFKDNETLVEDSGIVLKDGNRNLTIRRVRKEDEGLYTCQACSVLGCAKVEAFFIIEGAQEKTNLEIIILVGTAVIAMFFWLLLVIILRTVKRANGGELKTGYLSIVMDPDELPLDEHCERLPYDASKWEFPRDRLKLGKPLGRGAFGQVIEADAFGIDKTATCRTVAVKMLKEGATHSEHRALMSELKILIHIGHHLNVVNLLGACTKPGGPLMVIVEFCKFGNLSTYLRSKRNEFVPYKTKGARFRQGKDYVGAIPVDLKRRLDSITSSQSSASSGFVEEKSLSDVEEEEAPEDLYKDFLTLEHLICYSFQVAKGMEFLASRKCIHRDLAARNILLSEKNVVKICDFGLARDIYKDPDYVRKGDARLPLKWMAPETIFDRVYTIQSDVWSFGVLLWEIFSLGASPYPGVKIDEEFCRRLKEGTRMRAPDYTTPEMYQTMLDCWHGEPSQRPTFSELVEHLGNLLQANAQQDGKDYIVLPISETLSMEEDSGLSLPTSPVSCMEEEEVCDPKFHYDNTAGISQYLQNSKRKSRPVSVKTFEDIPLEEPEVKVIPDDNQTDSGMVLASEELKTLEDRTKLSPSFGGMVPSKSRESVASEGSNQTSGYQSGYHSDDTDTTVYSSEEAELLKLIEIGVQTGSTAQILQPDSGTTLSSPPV

Compound `COc1cc2nccc(Oc3ccc4c(C(N)=O)cccc4c3)c2cc1C(C)=O` showed an IC50 of 1.2 nM. That is a single-digit nanomolar value.
The same measure for `COc1cc2nccc(Oc3ccc4c(C(=O)NC5CC5)cccc4c3)c2cc1C(C)=O`: 0.372 nM; for `COCCNC(=O)c1cccc2cc(Oc3ccnc4cc(OC)c(C(C)=O)cc34)ccc12`: 21.9 nM; for `COc1cc2nccc(Oc3ccc4c(C(=O)Nc5ccc(Cl)cc5)cccc4c3)c2cc1C(C)=O`: 0.2 nM.
For `COc1cc2nccc(Oc3ccc4c(c3)OCCN4C(=O)Nc3ccc(Cl)cc3)c2cc1C(C)=O` the value was 0.603 nM; for `COc1cc2nccc(Oc3ccc4c(c3)OCCN4C(=O)Nc3ccc(C)cc3)c2cc1C(C)=O`, 0.501 nM; for `COc1cc2nccc(Oc3ccc4c(C(=O)NCC(F)F)cccc4c3)c2cc1OC`, 3.8 nM.
As to `COc1cc2nccc(Oc3ccc4c(C(=O)NC5CCC5)cccc4c3)c2cc1OC`, the IC50 is 2.14 nM.
The same measure for `COc1cc2nccc(Oc3ccc4c(C(=O)NC(C)C)cccc4c3)c2cc1OC`: 5.5 nM; for `COc1cc2nccc(Oc3ccc4c(C(=O)NC5CCCC5)cccc4c3)c2cc1OC`: 12 nM.
